Test results from patent US12115176B2, “Methods and compositions relating to ClbP inhibition” (PRESIDENT AND FELLOWS OF HARVARD COLLEGE, priority 2021, dated 2024).

Tested on: Escherichia coli NC101
Test: Bacterial MIC assay (broth dilution)
Assay type: cell-based
Conditions: Escherichia coli, NC101, 15 h, read-out: MICs by compound
Method: MICs of compounds against different bacterial species were determined using a modified version of a broth microdilution protocol which has been previously reported.^1 Briefly, cultures of each species indicated were inoculated from frozen stocks in deoxygenated Wilkins-Chalgren Anaerobic Medium (WCAM) inside of an anerobic chamber with an 92.5% N2/5% CO2/2.5% H2 atmosphere. Cultures were grown for 24-48 hours in a 37° C. incubator at which point an OD600-measurement was taken for each culture and was accordingly diluted in fresh WCAM to an equivalent of OD600=0.01. Diluted cultures were then distributed into the wells of a clear, flat-bottom 384-well plate and the compound of interest was added to a final DMSO concentration of 2% (or DMSO only for positive controls). […] mineral oil (Millipore Sigma) was deposited on top of the cultures and plates were covered with a clear adhesive plate seal. Plates were incubated at 37° C. for 16 hours, at which point the OD600 of all wells was recorded on a SpectraMax M2 plate reader (Molecular Devices).

In the case of CC1(C)OB([C@@H](CC(N)=O)NC(=O)CCCc2ccccc2)OC1(C)C [Compound 3], the MIC is reported as over 200 µM.
